This note sets out measurements from paper PMC7065195 (2020).

In test [1] the test system is poly A–poly U (poly rA–poly rU, AU-RNA) (RNA, polymer) A/U. Put plainly: UV thermal melting at 260 nm. The settings on record: Na+ (sodium cacodylate, I=0.05 M); pH 7.0; ratio r=[compound]/[polynucleotide]=0.1; per base.
For test [2], the system named is poly dAdT–poly dAdT (poly(dA-dT)2, AT-DNA) (DNA, polymer) AT. As to the kind of experiment: UV thermal melting at 260 nm. The settings on record: Na+ (sodium cacodylate, I=0.05 M); pH 7.0; ratio r=[compound]/[polynucleotide]=0.1; per base.

Regarding `Cc1cc(-c2ccc(-c3ccc(-c4cc(C)c(B(c5c(C)cc([N+](C)(C)C)cc5C)c5c(C)cc([N+](C)(C)C)cc5C)c(C)c4)s3)s2)cc(C)c1B(c1c(C)cc([N+](C)(C)C)cc1C)c1c(C)cc([N+](C)(C)C)cc1C`, the results for the ΔTm entry in test [1] and in test [2] were “+9.5 ± 0.5 °C” and “+10.0 ± 0.5 °C”, respectively.
